Data: patent publication US20230348475A1, “IMIDAZOPYRIDAZINE AND IMIDAZOPYRAZINE COMPOUNDS AS INHIBITORS OF CDK7” (THE TRANSLATIONAL GENOMICS RESEARCH INSTITUTE, priority 2020, published 2023)
Where a name gives a salt, the structure may show the parent alone. Read-outs that look alike come from different tables or passages of the source.

Experiments:
CDK7/CycH/MAT1 = CDK7/CycH/MAT1 (Homo sapiens, UniProt P50613); test: Kinase Glo (ADP-Glo) biochemical assay, CDK7; settings: CDK7/CycH/MAT1 40 ng, ATP 1 μM, 60 minutes at RT, luminescence
Outline: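 Enzyme (40 ng), RB-CTF peptide substrate (200 ng or 400 ng) and 1 μM ATP reacted in HEPES pH 7.5 buffer with MgCl2, MnCl2, DTT and Na3VO4 for 60 min at RT. Ten-point compound dilutions were tested from 30 μM final. ADP formed was read by ADP-Glo luminescence.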

[1] = system: MiaPaCa2 pancreatic cancer cell line; test: Cell viability assay (Cell Titer Glo), MiaPaCa2; format: cell-based; settings: Homo sapiens, MIA PaCa-2, 72 hour incubation
Method: (§1) Materials: • Cell Lines (Treated according to ATCC guidelines) • Cell Titer Glo (Promega Cat #G7572) • DMSO • 96-well White Tissue Culture Treated Plates (Perkin Elmer Cat #60005680)
(§2) Cells were seeded in a white 96-well tissue culture treated plate at a density of 1500 cells in 90 μL of media per well and allowed to settle overnight. A ten point serial dilution of drugs was prepared at 10×concentration in media with the final assay concentrations starting at 30 μM, 10 μM, 3 μM, 1 μM, 0.3 μM . . . 0 μM. A dilution of DMSO was included as a control. The assay was set up by adding 10 μL of the corresponding drug to each well in duplicate, followed by a 72 hour incubation at 37° C., 5% CO2. Cell viability was quantified by adding 90 μL of Cell Titer Glo to each well and incubating at room temperature for 10 minutes. The reaction was quantified by measuring luminescence using the Envision Plate Reader. Data was analyzed using Graphpad Prism 7 software.

[2] = system: HPAC pancreatic cancer cell line; test: Cell viability assay (Cell Titer Glo), HPAC; format: cell-based; settings: Homo sapiens, HPAC, 72 hour incubation
Method: as §1, §2

[3] = system: MDA-MB-231 breast cancer cell line; test: Cell viability assay (Cell Titer Glo), MDA-MB-231; format: cell-based; settings: Homo sapiens, MDA-MB-231, 72 hour incubation
Method: as §1, §2

MDA-MB436 cells = test: Cell viability assay (Cell Titer Glo), MDA-MB436; format: cell-based; settings: Homo sapiens, MDA-MB-436; Table 7b; 72 hour incubation
Method: as §2, with “Cell Viability Assay Materials: • Cell Lines (Treated according to ATCC guidelines) • Cell Titer Glo (Promega Cat #G7572) • DMSO • 96-well White Tissue Culture Treated Plates (Perkin Elmer Cat #60005680) Method: Cells” for “Cells”, “μ[…]” for “μM, 10 μM, 3 μM, 1 μM, 0.3 μM . . . 0 μM. A”

MDA-MB468 cells = test: Cell viability assay (Cell Titer Glo), MDA-MB468; format: cell-based; settings: Homo sapiens, MDA-MB-468; Table 7b; 72 hour incubation
Method: as §2, with “Cell Viability Assay Materials: • Cell Lines (Treated according to ATCC guidelines) • Cell Titer Glo (Promega Cat #G7572) • DMSO • 96-well White Tissue Culture Treated Plates (Perkin Elmer Cat #60005680) Method: Cells” for “Cells”, “μ[…]” for “μM, 10 μM, 3 μM, 1 μM, 0.3 μM . . . 0 μM. A”

[4] = system: Kasumi1 leukemia cancer cell line; test: Cell viability assay (Cell Titer Glo), Kasumi1; format: cell-based; settings: Homo sapiens, Kasumi 1, Table 7a, 72 hour incubation
Method: as §1, §2

[5] = system: A2780 ovarian cancer cell line; test: Cell viability assay (Cell Titer Glo), A2780; format: cell-based; settings: Homo sapiens, A2780, Table 7a, 72 hour incubation
Method: as §1, §2

[6] = system: A673 Ewingsarcoma cell line; test: Cell viability assay (Cell Titer Glo), A673; format: cell-based; settings: Homo sapiens, A673, Table 7a, 72 hour incubation
Method: as §1, §2

[7] = Table 7a, pancreatic cancer cell line
[8] = Table 7a, breast cancer cell line

CDK7/CycH/MAT1, sequence (P50613 whole entry): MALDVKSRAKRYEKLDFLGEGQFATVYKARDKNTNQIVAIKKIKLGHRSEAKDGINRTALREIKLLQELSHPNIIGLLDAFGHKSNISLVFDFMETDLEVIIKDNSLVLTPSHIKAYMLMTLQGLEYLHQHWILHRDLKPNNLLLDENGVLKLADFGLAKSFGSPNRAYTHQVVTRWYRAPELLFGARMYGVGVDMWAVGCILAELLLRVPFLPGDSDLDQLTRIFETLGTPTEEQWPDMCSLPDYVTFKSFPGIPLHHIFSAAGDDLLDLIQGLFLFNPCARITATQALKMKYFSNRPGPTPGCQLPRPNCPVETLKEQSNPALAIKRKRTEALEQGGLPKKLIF
CDK7/CycH/MAT1, sequence (P51946 whole entry partner): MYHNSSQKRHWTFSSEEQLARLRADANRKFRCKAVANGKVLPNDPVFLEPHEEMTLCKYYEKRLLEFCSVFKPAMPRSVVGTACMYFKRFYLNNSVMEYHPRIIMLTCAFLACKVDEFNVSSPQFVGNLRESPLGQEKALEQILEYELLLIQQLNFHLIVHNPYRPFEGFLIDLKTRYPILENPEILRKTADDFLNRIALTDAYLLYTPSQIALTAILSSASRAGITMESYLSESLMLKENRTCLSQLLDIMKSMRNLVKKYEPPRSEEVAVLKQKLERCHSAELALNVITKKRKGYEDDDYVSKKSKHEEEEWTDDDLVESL
CDK7/CycH/MAT1, sequence (P51948 whole entry partner): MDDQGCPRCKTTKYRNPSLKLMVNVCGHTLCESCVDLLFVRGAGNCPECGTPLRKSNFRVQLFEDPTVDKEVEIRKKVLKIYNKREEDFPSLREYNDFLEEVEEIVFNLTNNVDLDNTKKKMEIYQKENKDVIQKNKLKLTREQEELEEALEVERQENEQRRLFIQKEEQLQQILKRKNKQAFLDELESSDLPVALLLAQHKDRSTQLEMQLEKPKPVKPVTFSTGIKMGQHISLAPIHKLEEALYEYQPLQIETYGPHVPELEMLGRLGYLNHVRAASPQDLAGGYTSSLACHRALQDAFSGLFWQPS

Question: For `Fc1cccc(Nc2cc(O[C@H]3CCCNC3)nn3c(C4CC4)cnc23)c1` [Compound I-1], which IC50 (CDK7/CycH/MAT1) is on record?
Answer: < 100 nM

Question: And the IC50 ([1]; Table 7b, read-out: IC50 MIA PaCa2)?
Answer: < 1 µM

Question: What about the IC50 ([2]; Table 7b) of the same molecule?
Answer: 1 to 5 µM

Question: And the IC50 ([3]; Table 7b, read-out: IC50 MDA-MB231)?
Answer: 1 to 5 µM

Question: And the IC50 (MDA-MB436 cells)?
Answer: 1 to 5 µM

Question: And the IC50 (MDA-MB468 cells)?
Answer: 1 to 5 µM

Question: With `CC(C)c1cnc2c(NCc3ccccc3OC(F)(F)F)cc(NC3CCNCC3)nn12` [Compound 38, hydrochloride] as the molecule, how does the IC50 (CDK7/CycH/MAT1) read?
Answer: < 100 nM

Question: What about the IC50 [1, 7] of the same molecule?
Answer: 1 to 5 µM

Question: And the IC50 [2, 7]?
Answer: 1 to 5 µM

Question: What about the IC50 [4] of the same molecule?
Answer: 1 to 5 µM

Question: What about the IC50 [3, 8] of the same molecule?
Answer: 1 to 5 µM

Question: And the IC50 [5]?
Answer: 1 to 5 µM

Question: What about the IC50 [6] of the same molecule?
Answer: 1 to 5 µM

Question: Which results are given for `CC(C)c1cnc2c(NCc3ccccc3OC(F)(F)F)cc(NC[C@H]3CNCCO3)nn12` [Compound 48, (R)-3-isopropyl-N6-(morpholin-2-ylmethyl)-N8-(2-(trifluoromethoxy)benzyl)imidazo[1,2-b]pyridazine-6,8-diamine hydrochloride]?
Answer: IC50 (CDK7/CycH/MAT1): < 100 nM; IC50 [1, 7]: 1 to 5 µM; IC50 [2, 7]: 1 to 5 µM; IC50 [4]: > 5 µM; IC50 [3, 8]: 1 to 5 µM; IC50 [5]: 1 to 5 µM; IC50 [6]: 1 to 5 µM
